From US7427391B2, “Formulations for use in medical and diagnostic procedures” (priority 2001, dated 2008)

How the values were obtained:
Format in all cases: in vivo, human
stomach and small bowel = assay: CT-PET measurement of stomach, jejunum and ileum diameters in oncologic patients (Example 5); settings: 20 oncologic patients per agent
Description: CT-PET examinations of 60 oncologic patients were performed on a combined CT-PET tomograph. Three different oral contrast agents were randomly assigned to 20 patients each: barium, water, and a solution of 2.5% mannitol and 0.2% locust bean gum (LBG). To compare the bowel distension abilities of the three agents, representative diameters each of the stomach, the jejunum and the ileum were measured by two radiologists. PET images were evaluated qualitatively for areas of increased bowel FDG uptake based on a four-point scale as well as quantitatively by determination of standard uptake values (SUV). To assess the effect of the different contrast agents onto the tracer activity concentration phantom measurements were performed.
Table 3 Intestinal distension of the stomach, the jejunum, and the ileum induced by the contrast agents under investigation as well as SUV of the small intestine in the presence of the different contrast materials. Statistical significance was determined by unpaired Student's test based on 200 measurements each for the stomach, the jejunum, the ileum, and the SUV. Thus, a total of 800 measurements were performed for every contrast agent under investigation.

small bowel [1] = assay: MR imaging of small bowel after oral contrast solutions (Examples 1-3); settings: oral application, FIGS. 1-9
Description: Ten healthy volunteers with no history of gastrointestinal disorder underwent MR imaging following an eight hour fast. The examination was repeated on four different days using different osmotic substances in a randomized order: water, water spiked with mannitol (2.5%), Metamucil (0.7%) or locust bean gum (0.2%). Concentrations of the additives were chosen to avoid side-effects such as diarrhea.
Forty-five minutes prior to the examination, 50 mg of Erythromycin was applied intravenously to increase gastric emptying and the volunteers started ingesting the respective contrast substance. Coronal 2D measurements were performed in the prone patient position with a TRUFISP sequence (TR/TE/flip 3.2/1.6/70°) using 1.5 T scanner (Sonata, Siemens). The acquisition time amounted to 16 sec. Small bowel filling was quantified in two different ways: (1) determination of small bowel fluid by automatically measuring all pixels meeting the signal intensity of water, and (2) assessment of small bowel distension by manual measurement of 15 small bowel diameters and calculating an average value.

small bowel [2] = assay: Blinded qualitative rating of bowel distension on MR images by five radiologists (Example 4); settings: six volunteers; consensus of five blinded radiologists
Text: For a qualitative assessment, MR images of all 5 examinations for each volunteer were presented as hardcopies in a randomized and blinded fashion to five radiologists. They were asked to rate the images regarding bowel distention in an ascending order for each volunteer. The qualitative assessment was done by consensus.

small bowel [3] = assay: MR (TrueFISP) measurement of small bowel loop diameters after 1500 ml oral contrast solution (Example 4); settings: for Mean small bowel diameter / Mean small bowel diameter, AV (average of all six volunteer examinations): 1500 ml orally over 45 minutes; for Mean small bowel diameter: MR TrueFISP; for Mean small bowel diameter, AV (average of all six volunteer examinations): average of six volunteers; for Small bowel distension, comparison in words: six volunteers, paired t-test, p<0.01
Description: Six healthy volunteers (three female and three male; age range 21-28 years) without known contraindications to MR imaging were included in this study, which was conducted in accordance with all guidelines set forth by the approving institutional review board. Presence of gastrointestinal disease, previous abdominal surgery and symptoms of gastrointestinal disorders such as post-prandiol belching, nausea or early satiety were excluded. Each volunteer was examined on five different occasions. […] The LBG and Metamucil concentrations were chosen as high as possible within the confines of an unproblematic ingestion regarding viscosity and flavor, while choice of the mannitol concentration was based on previous studies. To assure homogenization of bowel activity, all exams were performed following 8 hour fasts. Prior to each exam, 1500 ml of the respective contrast solution were orally ingested over 45 minutes at a steady, evenly distributed rate. To ensure a consistent ingestion, volunteers were asked to drink 150 ml every four to five minutes. To enhance gastric emptying, 100 mg erythromycin (Abbott Pharmaceutics, Wiesbaden, Germany) were administered intravenously directly after the ingestion of the first 150 ml of the contrast solution. […] For signal reception a large ‘flex surface coils’ was used. Prior to the data acquisition neither spasmolytic agents nor paramagnetic contrast compounds were intravenously applied. […] Other sequence parameters included a field of view 35 cm, a slice thickness of 7 mm (25 slices) and an acquisition time of 24 seconds. Matrix size was 144×256, inter section gap amounted to 1 mm and the number of excitation was one. All 30 MR examinations were of diagnostic image quality. 1500 ml of each solution was ingested within the target time of 45 minutes. Images were quantitatively analyzed independently by two radiologists, who were blinded to the type of oral contrast employed. […] For the measurements bowel loops with maximal diameter were chosen. […] Subsequent analysis was based on mean small bowel diameters and their standard deviations. The effects of the analyzed oral contrast agents concerning small bowel distension were compared by a paired t-test. For the adaptation to multiple samples, a Bonferoni-correction was used.

[4] = Incidence of diarrhea in patients given contrast agent; settings: administered alone as a contrast agent
Description: Further, it has been discovered that the formulations disclosed herein have the unexpected benefit of reducing incidents of diarrhea among patients. For example, when mannitol alone is administered as a contrast agent, approximately 99% of patients experience diarrhea, sometimes in severe form. As a result, the patient's health and/or hydration may be affected, and the exam may be compromised. […] It is believed that this is due to the thickening properties of the stabilizing agent. Accordingly, due to the patient not having to use the bathroom during the procedure, for example, the medical or diagnostic procedure can be performed with less patient discomfort and with less interference. Additionally, patient compliance with the medical or diagnostic procedure is increased due to decreased complications with the procedure.

[5] = Side-effect questionnaire (diarrhea, nausea) 24 hours after MR examination (Example 4)
Text: Twenty-four hours after each MR examination, volunteers were asked by a standardized questionnaire based on a three-point scale (0=no side-effects, 1=mild side-effects, 2=severe side-effects) if either diarrhea or nausea have occurred in association with the contrast ingestion.

Structure (SMILES)	Intestinal distension of the ileum, Mean (stomach and small bowel)	Intestinal distension of the jejunum, Mean (stomach and small bowel)	Intestinal distension of the stomach, Mean (stomach and small bowel)	Diagnostic performance / lumen distention, in words (small bowel [1])	Qualitative assessment of small bowel distension (rating) (small bowel [2])	Mean small bowel diameter (small bowel [3]; Volunteer #1)	Mean small bowel diameter (small bowel [3]; Volunteer #2)	Mean small bowel diameter (small bowel [3]; Volunteer #3)	Mean small bowel diameter (small bowel [3]; Volunteer #4)	Mean small bowel diameter (small bowel [3]; Volunteer #5)	Mean small bowel diameter (small bowel [3]; Volunteer #6)	Mean small bowel diameter, AV (average of all six volunteer examinations) (small bowel [3])	Small bowel distension, comparison in words (small bowel [3])	Patients experiencing diarrhea [4]	Diarrhea, in words ([5]; of the three evaluated substances)	Diarrhea as side effect, volunteers reporting ([5]; six volunteers, questionnaire 24 hours after MR examination)
O [Water, water]	1.4	1.6	6.1	does not achieve acceptable or diagnostic results	rated poorest	13.6 mm	15.0 mm	12.4 mm	14.6 mm	12.6 mm	11.8 mm	13.3 mm	significantly less small bowel distension			
OC[C@@H](O)[C@@H](O)[C@H](O)[C@H](O)CO [Mannitol, mannitol]					in four volunteers mannitol was rated better	23.7 mm	22.9 mm	19.2 mm	19.3 mm	22.9 mm	19.6 mm	21.3 mm	superior to Metamucil	approximately 99%	consistently resulted in diarrhea	2 of 6
